Consider nine compounds from patent US9625448B2, “Double caged GABA compounds, bis-CNB-GABA” (The Trustees of Princeton University, priority 2014, dated 2017).

The conditions of data set [1]: cited from earlier work.
The conditions of data set [2]: cited from earlier work. This is another data set of the same source.
The conditions of data set [3]: N-position; Wieboldt et al., 1994; cited from earlier work.
The target in data set [4] is GABAA receptors. As to conditions: Table 2; Matsuzaki et al. 2010; read-out: IC50 in blocking synaptic GABAA currents; cited from earlier work.
Data set [5] relates to GABAA receptors. Nature of the data set: Current evoked by puff of 100 μM GABA and caged compounds around the soma (Matsuzaki et al., 2010). The class given is cell-based. The following applies: for IC33: calculated, q=0.33. The protocol: (§1) FIG. 26 illustrates whole-cell patch clamp recordings from dentate granule cells of rat hippocampal slices reported by Molnár & Nadler, 2000. […] Holding potential of −80 mV. (Molnár & Nadler, 2000 European Journal of Pharmacology, 391, 255-262, which is incorporated herein by reference as if fully set forth, which is incorporated herein by reference as if fully set forth). […] FIG. 27 illustrates summary of the amplitudes of the current evoked by puff of 100 μM GABA and caged compounds around the soma reported by Matsuzaki et al., 2010. The amplitude was normalized to the mean current that was induced by GABA application alone. Left panel illustrates control (n=7); +10 mM CNI-GABA (n=7). Central panel illustrates control (n=10); +0.4 mM CDNI-GABA (n=10), +1.35 mM CDNI-GABA (n=14); +10 mM CDNI-GABA (n=10). Right panel illustrates control (n=9); +1 mM MNI-Glu (n=4); +10 mM MNI-Glu (n=9). ** p<0.0001, * p<0.01 (Matsuzaki et al., 2010 Nature Chemical Biology, 6, 255-257, which is incorporated herein by reference as if fully set forth). […] Though this is a much higher concentration compared to the IC50 for CNB-GABA, CDNI requires a higher concentration when photolyzed in vitro because of its two-photon sensitivity. Because 10 mM is the concentration used for two-photon uncaging, this antagonism is still practically limiting. […] FIG. 28 illustrates the effects of NI-caged GABA and DPNI-GABA on amplitudes of miniature GABA synaptic currents as reported by Trigo et al., 2009. Referring to FIG. 28 (left), this panel illustrates recordings of miniature synaptic GABA currents in molecular layer interneurons before and during application of 1 mM DPNI-GABA. The initial inward current on diluting the cage into the bath was attributable to contaminating levels of GABA. Referring to FIG. 28 (right), the panel illustrates summary histogram from five cells of the block of spontaneous GABA currents by DPNI-GABA at different concentrations in the bath. (Trigo et al., 2009 Journal of Neuroscience Methods, 181, 159-169, which is incorporated herein by reference as if fully set forth).

The conditions of data set [6]: aqueous solution; literature; cited from earlier work.
Data set [7] concerns GABAA receptors. The following applies: cited from earlier work.
Data set [8] relates to cerebellar molecular layer interneurons. Nature of the data set: Photolysis-evoked GABAergic currents in cerebellar molecular layer interneurons. The class given is cell-based. On the procedure: The biological properties of our synthetic bis-CNB-GABA were evaluated using whole-cell patch recording from cerebellar molecular layer interneurons.
FIGS. 42A-42E illustrate physiological responses to photolysis of bis-CNB-GABA. FIG. 42A illustrates a cerebellar molecular layer interneuron visualized using Alexa 488 in the patch recording electrode solution. Referring to FIG. 42A, bis-CNB-GABA (0.6 mM) was photolyzed with a 405 nm laser spot in 3 different locations (indicated by 1, 2 and 3). Still referring to FIG. 42A, laser-evoked GABAergic currents are shown on the right panel. Still referring to FIG. 42A, gray traces show individual sweeps and black traces are averages. Still referring to FIG. 42A, the gray sweep at bottom indicates the laser flash (1 ms duration, intensity 5 mW) as recorded using a photodiode. FIG. 42B illustrates bis-CNB-GABA (1.4 mM) was photolyzed with a […] LED at progressively higher flash energies (0.25-1.1 mW, 5-50 ms, 1.25-55 μJ). FIG. 42C illustrates the same experiment as shown in FIG. 42B with Responses to mono-CNB-GABA (50 μM). FIG. 42D illustrates normalized current as a function of relative LED flash energies plotted on a log-log scale. FIG. 42E illustrates laser-evoked whole-cell current recorded in the absence and presence of 3 μM gabazine, a GABA receptor antagonist. Referring to FIG. 42E, a larger flash energy was used in the presence of gabazine.
Referring to FIG. 42A, molecular layer interneurons receive excitatory glutamatergic synapses, as well as inhibitory GABAergic synapses that show a pronounced level of spontaneous activity (gray traces). The effects of bis-CNB-GABA on these synaptic currents were tested.
By contrast, the relationship for mono-O-CNB-GABA was close to linear (log-log slope=1.3±0.1, n=3). For these measurements, evoked currents were normalized to the maximum current observed in the same neuron. […] These power laws are consistent with a process in which each molecule of bis-CNB-GABA must cumulatively undergo two uncaging reactions in order to release an active GABAA agonist.
To test whether bis-CNB-GABA-evoked responses resemble physiological events in their kinetics, we measured the kinetic properties of flash responses. […] This rise time is consistent with the dark reaction time (1.5 ms) for the slower cage, N-mono-CNB-GABA (Wieboldt, R.; Ramesh, D.; Carpenter, B. K; Hess, G. P. Biochemistry, 1994, 33, 1526-1533, which is incorporated herein by reference as if fully set forth). […] These rates approach those of spontaneous events and are among the fastest described for other GABA cages. […]

Data set [9] concerns GABAA receptors. Kind of data set: Miniature GABA synaptic currents in molecular layer interneurons (Trigo et al., 2009). In kind it is cell-based. The protocol: as §1
The test system of data set [10] is GABAA receptors. As to conditions: cited from earlier work. This is another data set of the same source.
For a further data set, the system named is cerebellar interneurons. The following applies: FIG. 43A, 1 mM; see Trigo et al., 2009; cited from earlier work.

Where two headings read alike, the source gives them in different places.

For `O=C(O)CC[C@H](NC(=O)OCc1cc(=O)oc2cc(O)c(Br)cc12)C(=O)O` [Bhc-glutamate], the extinction coefficient is 17,470 M^−1 cm^−1 in data set [1] (at 368 nm, caged on the amine) and 19,550 M^−1 cm^−1 in [1] (at 369 nm, caged at the carboxylate). For the same compound, the “product of extinction coefficient and quantum yield (φ×ε)” value in data set [2] (caged on the amine) is 331 M⁻¹ cm⁻¹. Moreover, the quantum yield in [2] (caged on the amine) and in [2] (literature values) was 0.019 in each case. Also, the “product of extinction coefficient and quantum yield (ε×Φ)” value in data set [2] (literature values) was 371 M⁻¹ cm⁻¹.

For the compound `O=C(O)CCCNC(C(=O)O)c1ccccc1[N+](=O)[O-]` (stereo not shown) [N-mono-CNB-GABA], the dark reaction time in data set [3] was 1.5 ms.

Usually IC50 stands for the point on the concentration scale where inhibition reaches its midpoint. Consider `NCCCC(=O)N1CCc2c(OCC(=O)O)c([N+](=O)[O-])cc([N+](=O)[O-])c21` [CDNI-GABA], for which the 50% inhibitory concentration (IC50) on GABAA receptors [4] is 600 µM. Besides, in the data set on GABAA receptors [5], the “concentration showing 33% reduced response” value is 220 µM. The IC33 with GABAA receptors [5] (Table 1) was 0.22. Also, at GABAA receptors [5] (from data of Matsuzaki et al., 2010), the IC50 came out at 450 µM. Moreover, the extinction coefficient in data set [1] (at 330 nm) was 6,400 M^−1 cm^−1. Besides, in [2] (literature values), the “product of extinction coefficient and quantum yield (ε×Φ)” value is 3,840 M^−1 cm^−1; the quantum yield is reported as 0.6. Further, the Stability result in data set [6] is recorded as “Stable”.

For `F[P-](F)(F)(F)(F)F.NCCCC(=O)[O-].[Ru+2].c1ccc(-c2ccccn2)nc1.c1ccc(-c2ccccn2)nc1.c1ccc(P(c2ccccc2)c2ccccc2)cc1` [RuBi-GABA, Ruthenium-bipyridine-triphenylphosphine-GABA], in the data set with GABAA receptors [7] (Verde et al., 2008), the “concentrations at which antagonistic GABAA receptor activity is exhibited” value is recorded as “above 20 μM”.

For the compound `COc1ccc([N+](=O)[O-])c2c1CCN2C(=O)CC[C@H](N)C(=O)O` [MNI-glu], at GABAA receptors [5] (Table 1, calculated from data of Matsuzaki et al. 2010), the concentration for half-maximal inhibition (IC50) was 1100 µM. Moreover, the IC33 in the data set on GABAA receptors [5] (Table 1) was 0.37. Also, the quantum yield in data set [2] (literature values) was 0.085.

As to `CP(C)C.F[P-](F)(F)(F)(F)F.F[P-](F)(F)(F)(F)F.NC(CCC(=O)[O-])C(=O)[O-].[Na+].[Na+].[Ru+2].c1ccc(-c2ccccn2)nc1.c1ccc(-c2ccccn2)nc1` [RuBi-glutamate], the IC50 at GABAA receptors [7] (Table 2 footnote 2, Fino et al., 2009, read-out: IC50 in blocking synaptic GABAA currents) is 300 µM.

As for `COc1ccc(-c2ccc(=N)n(CCCC(=O)O)n2)cc1` [gabazine], the “effect on currents produced by photolysis of bis-CNB-GABA” value in data set [8] (3 μM gabazine) is recorded as “reversibly eliminated”. Moreover, the “effect on responses to photolysis of bis-CNB-GABA” value in data set [8] (3 M gabazine) is listed as “eliminated these responses”.

In the case of `NCCCC(=O)N1CCc2c(OC(COP(=O)(O)O)COP(=O)(O)O)ccc([N+](=O)[O-])c21` [DPNI-GABA], the “concentration showing 33% reduction” value in the data set with GABAA receptors [9] was 230 µM. Also, the IC33 with GABAA receptors [9] (Table 1, calculated, q=0.33) is 0.23 mM. Also, the concentration for half-maximal inhibition (IC50) on GABAA receptors [9] (from data of Trigo et al., 2009) is 470 µM; on GABAA receptors [10] (Table 2, cerebellar interneurons, read-out: IC50 in blocking synaptic GABAA currents), 500 µM. In addition, the decrease in response in the data set with GABAA receptors [10] (1 mM) is over 50%. Besides, in the data set on GABAA receptors [10] (Trigo et al., 2009), the “effect on rise times of IPSCs” value is reported as “prolongs rise times”. The “effect on inward holding current compared with mono-O-CNB-GABA” value in the data set on cerebellar interneurons is listed as “similar, though less pronounced”. In data set [6], the Stability entry is “Stable”.

For `COc1ccc([N+](=O)[O-])c2c1CCN2C(=O)CCCN` [MNI-GABA], the “effect on GABAA receptors” value in the data set with GABAA receptors [7] (less than CNB-GABA, Palma-Cerda et al., 2012) is on record as “antagonistic effect”.
